One compound from US12128023B2, “Pharmaceutical composition containing B-lapachone as active ingredient for prevention or treatment of cholestatic liver disease” (CUROME BIOSCIENCES CO., LTD., priority 2020, dated 2024) can be followed below.

For experiment [1], the system named is LX-2 hepatic stellate cell line. Put plainly: Fibronectin and α-SMA protein expression in TGF-β1-treated LX-2 hepatic stellate cell line (immunoblotting). The experiment is classed as cell-based. The note with it: LX-2, 1 ng/ml TGF-β1 + 0.5 or 1 μM β-lapachone, 24 hours. As to the method: Considering that inflammation and fibrosis of bile ducts cause cirrhosis in cholestatic liver disease, experiments were performed on the LX-2 hepatic stellate cell line model by using the method of Takaaki Higashi et al. (2017). The LX-2 cell line was subcultured in DMEM containing 10% FBS, 2 mM glutamine, 100 U penicillin, and 0.1 mg/ml streptomycin. The LX-2 cell line was added into a 6-well plate at a density of 16×10^4 cells/well, and cultured in DMEM containing 1 ng/ml TGF-β1, 1 ng/ml TGF-β1+0.5 μM β-lapachone or 1 ng/ml TGF-β1+1 μM β-lapachone for 24 hours. Thereafter, the protein expression levels of the fibrosis-related genes fibronectin and α-SMA of the obtained cells were measured by protein immunoblotting according to a conventional method known in the art.

Experiment [2] deals with DDC-induced cholestatic liver disease mice. Put plainly: Preventive effect in DDC-induced cholestatic liver disease mouse animal models (β-lapachone given 3 days before DDC). The experiment is classed as in vivo, C57BL/6 male mice. Here is the method: DDC-induced cholestatic liver disease mouse animal models were prepared according to the method of Elisa Pose et al. by using 8-week-old C57BL/6 male mice (Samtako, Korea). Briefly, cholestatic liver disease was induced by feeding a standard rodent diet supplemented with 0.1% (w/w) DDC for 7 or 14 days. The 12-hour light and dark cycle was maintained and animals were allowed to free access to water. The standard rodent diet included medium wheat, wheat, corn, and corn gluten flour, and soybean oil (14% protein). All animal related procedures were reviewed and approved by the Institutional Animal Care and Use Committee of Korea Research Institute of Bioscience and Biotechnology (KRIBB), KRIBB-AEC-20165). The tissue staining of the cholestatic liver disease animal models was measured through H&E staining (basic tissue staining), Sirius Red staining (collagen staining), and Masson's trichrome staining (collagen, cytoplasm, muscle fibers, etc.), and the tissue staining was measured by a skilled researcher. To investigate the preventive effect of β-Lapachone (BL) on cholestatic liver disease, the mice were fed a diet with 0 (DDC-vehicle), 40 mg/kg (DDC-BL40) and 80 mg/kg (DDC-BL80) 3 days before DDC treatment (total 17 days) and, after 3 days, were fed a diet with DDC (total 14 days). After 14 days of DDC treatment, the mice were sacrificed and the liver was harvested including the portal vein (PV) and bile ducts of the mice, and the surrounding lesions were confirmed by H&E, and are shown in FIG. 1. The liver harvested in Example 2.1 was investigated for tissues or connective tissues around cells through Sirius Red and Masson's trichrome staining, which are shown in FIG. 2A. The expression of the factors in the liver tissue obtained from the cholestatic liver disease mouse animal models of Example 2.1 was performed by a real-time polymerase chain reaction was performed according to the following procedure. Total RNA from liver samples was extracted using Tri-RNA Reagent (Favrogen BIOTECH CORP, Nong-Ke Rd, Taiwan) according to the procedure presented by Favrogen, and was reverse transcribed into cDNA by using PrimeScript™ RT reagent Kit with gDNA Eraser (TAKARA Korea Biomedical Inc, Seoul, 08506, Korea). Quantitative PCR was performed using TB Green™ Premix Ex Tag™ II (Tli RNaseH Plus), ROX plus (TAKARA Korea Biomedical Inc, Seoul, 08506, Korea) and QuantStudio 5 Real-Time PCR Instrument (Thermo Fisher Scientific, Waltham, MA, USA).

Experiment [3] shares this test system. Put plainly: Treatment effect in cholestatic liver disease-induced mice (DDC 3 days, then treatment 4 days). It counts as in vivo, C57BL/6 male mice. Here is the method:
The treatment effect of β-lapachone in cholestatic liver disease-induced mouse animals were investigated. After 8-week-old C57BL/6 male mice (Samtako, Korea) were divided into each group (=6), each group excluding a control group was fed a diet containing 0.1% DDC for 3 days. Thereafter, the mice were fed a diet with DDC control (vehicle), DDC-+β-lapachone 20 mg/kg, DDC-+β-lapachone 40 mg/kg, DDC-+β-lapachone 80 mg/kg, and positive control DDC+obeticholic acid 30 mg/kg for 4 days (total 7 days). After 7 days of feeding, the mice were sacrificed and then the blood was collected from the heart.

For experiment [4] the test system is unchanged. Put plainly: DDC-induced cholestatic liver disease mice, DDC and β-lapachone administered together for 7 days. It counts as in vivo, C57BL/6 male mice. Here is the method:
To investigate the effect of β-lapachone (BL) on the occurrence of cholestatic liver disease, both […] and β-lapachone were administered to mice to characterize animal models.
After 8-week-old C57BL/6 male mice (Samtako, Korea) were divided into each group (=6), the mice were fed a diet with normal (vehicle), control (DDC), DDC-+β-lapachone 20 mg/kg, DDC+β-lapachone 40 mg/kg, DDC+β-lapachone 80 mg/kg, DDC+β-lapachone 100 mg/kg, and positive control DDC+ursodeoxycholic acid 100 mg/kg, and DDC+obeticholic acid 30 mg/kg (total 7 days). After 7 days of treatment, the mice were sacrificed and then the blood was collected from the heart. Thereafter, the levels of alanine aminotransferase (ALT), aspartate aminotransferase (AST), alkaline phosphatase (ALP), and bilirubin, which are blood indexes, were analyzed, and shown in FIG. 4.
After the cholestatic liver disease mouse animal models in Example 3.1 were sacrificed and the liver tissue was harvested therefrom, the mRNA levels of fibrosis-related genes were measured by a method similar to the method in Example 2.3.
In the cholestatic liver disease, the inflammation in the portal vein and damage to the bile ducts in the liver occur chronically, resulting in cholestasis and liver fibrosis. The mRNA levels of inflammatory cytokine genes in the liver tissue of the cholestatic liver disease mouse animal models obtained by the same method as in Example 3.1 were measured, and shown in FIG. 6.

Setting [5] is: liver mRNA, DDC-BL40 and DDC-BL80 vs DDC-vehicle.
Where [6] appears, read: 0.1% DDC 3 days, then DDC + β-lapachone 20, 40, 80 mg/kg in diet 4 days, depending on the concentration.
The mark [7] stands for this setting: DDC + β-lapachone 20, 40, 80, 100 mg/kg in diet, depending on the concentration.
[8] abbreviates: liver mRNA, DDC + β-lapachone, depending on the concentration.

For the compound `CC1(C)CCC2=C(O1)c1ccccc1C(=O)C2=O` [β-lapachone], in experiment [1], the “protein expression level of fibronectin increased by TGF-β1” value is given as “reduced depending on the concentration” and the “protein expression level of α-SMA increased by TGF-β1” value is “reduced depending on the concentration”. Also, in experiment [2] (DDC-BL40 and DDC-BL80 (40 and 80 mg/kg in diet, 17 days; DDC 14 days) compared with DDC-vehicle, concentration dependent), the “lesions around the portal vein (PV) and bile ducts (H&E)” value was “significant lesion reductions”. Also, in experiment [2] (setting [5]), the “transcriptional level of Col1α1” value was “significantly reduced”, the “transcriptional level of Col4α1” value is on record as “significantly reduced”, the “transcriptional level of TGF-β1” value is listed as “significantly reduced” and the “transcriptional level of fibronectin” value is “significantly reduced”. The “transcriptional level of α-SMA” value in experiment [2] (setting [5]) was “significantly reduced”. Moreover, the “formation of connective tissues (Sirius Red and Masson's trichrome staining)” value in experiment [2] (liver of DDC mice treated with β-lapachone 40 and 80 mg/kg vs DDC-vehicle) is on record as “inhibited such fibrosis progression”. Also, in experiment [3] (setting [6]), the “ALP in the blood” value is “inhibited” and the “bilirubin in the blood” value is “inhibited”. The “effect on blood indexes (bilirubin, ALP) compared with positive controls” value in experiment [3] (vs ursodeoxycholic acid (UDCA) and obeticholic acid (OCA)) was “excellent effect compared with ursodeoxycholic acid (UDCA) and obeticholic acid (OCA)”. For the same compound, in experiment [4] (setting [7]), the “ALP in the blood” value was “inhibited”, the “ALT in the blood” value was “inhibited”, the “AST in the blood” value is “inhibited” and the “bilirubin in the blood” value is given as “inhibited”. In experiment [4] (liver mRNA, DDC + β-lapachone), the “transcriptional level of IL-1β” value is given as “inhibited” and the “transcriptional level of TNFα” value is “inhibited”. For the same compound, in experiment [4] (setting [8]), the “transcriptional level of Col1α1” value is listed as “inhibited”, the “transcriptional level of Col1α2” value was “inhibited” and the “transcriptional level of TGF-β1” value is recorded as “inhibited”. In experiment [4] (vs ursodeoxycholic acid 100 mg/kg and obeticholic acid 30 mg/kg), the “effect on blood indexes (ALT, AST, ALP, bilirubin) compared with positive controls” value was “excellent effects compared with ursodeoxycholic acid (UDCA) and obeticholic acid (OCA)”.
